Drawing on patent US12428430B2 (BRISTOL-MYERS SQUIBB COMPANY, priority 2018, dated 2025), this text covers IC50 for 25 molecules.

In this experiment the target is hLPA1 (Homo sapiens, UniProt Q92633). The experiment is described as follows: LPA1 functional antagonist assay (LPA-induced calcium flux in CHO cells overexpressing human LPA1). It counts as cell-based. Also noted: expressed in transfected cells; host or cells: Chinese hamster ovary (CHO) cells. Particulars: antagonist mode, inhibition of calcium flux induced by 10 nM LPA, read-out: hLPA1 IC50. The protocol:
The effectiveness of compounds of the present invention as LPA1 inhibitors can be determined in an LPA1 functional antagonist assay as follows:
Chinese hamster ovary cells overexpressing human LPA1 were plated overnight (15,000 cells/well) in poly-D-lysine coated 384-well microplates (Greiner bio-one, Cat #781946) in DMEM/F12 medium (Gibco, Cat #11039). Following overnight culture, cells were loaded with calcium indicator dye (AAT Bioquest Inc, Cat #34601) for 30 minutes at 37° C. The cells were then equilibrated to room temperature for 30 minutes before the assay. Test compounds solubilized in DMSO were transferred to 384 well non-binding surface plates (Corning, Cat #3575) using the Labcyte Echo acoustic dispense and diluted with assay buffer [1×HBSS with calcium/magnesium (Gibco Cat #14025-092), 20 mM HEPES (Gibco Cat #15630-080) and 0.1% fatty acid free BSA (Sigma Cat #A9205)] to a final concentration of 0.5% DMSO. Diluted compounds were added to the cells by FDSS6000 (Hamamatsu) at final concentrations ranging from 0.08 nM to 5 μM. and were then incubated for 20 min at room temperature at which time LPA (Avanti Polar Lipids Cat #857130C) was added at final concentrations of 10 nM to stimulate the cells. The compound IC50 value was defined as the concentration of test compound which inhibited 50% of the calcium flux induced by LPA alone. IC50 values were determined by fitting data to a 4-parameter logistic equation (GraphPad Prism, San Diego Calif.).

Sequence of hLPA1 (Q92633 whole entry): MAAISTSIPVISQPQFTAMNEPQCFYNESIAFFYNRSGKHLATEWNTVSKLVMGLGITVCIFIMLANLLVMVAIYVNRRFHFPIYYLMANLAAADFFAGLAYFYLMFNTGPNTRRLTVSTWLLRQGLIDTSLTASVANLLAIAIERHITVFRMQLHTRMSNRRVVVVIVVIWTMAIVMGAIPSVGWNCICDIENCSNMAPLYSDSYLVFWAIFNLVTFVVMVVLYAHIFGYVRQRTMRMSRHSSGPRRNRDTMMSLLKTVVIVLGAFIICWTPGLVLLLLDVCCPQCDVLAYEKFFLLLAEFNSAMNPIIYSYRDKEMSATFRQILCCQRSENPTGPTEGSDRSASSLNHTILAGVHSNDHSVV

Consider `Cc1ccccc1[C@@H](C)OC(=O)Nc1c(C)noc1-c1ccc(C23CCC(CC(=O)O)(CC2)CO3)cc1` [Example 49, 2-(1-(4-(3-methyl-4-((((R)-1-(o-tolyl)ethoxy)carbonyl)amino)isoxazol-5-yl)phenyl)-2-oxabicyclo[2.2.2]octan-4-yl)acetic acid], for which the IC50 stood at 303 nM.

In the case of `CN(C(=O)OCc1c(-c2ccc(C34CCC(CC(=O)O)(CC3)OC4)cc2)cnn1C)C1CCCC1` [Example 4, 2-(4-(4-(5-(((cyclopentyl(methyl)carbamoyl)oxy)methyl)-1-methyl-1H-pyrazol-4-yl)phenyl)-2-oxabicyclo[2.2.2]octan-1-yl)acetic acid], the IC50 is 1610 nM.

Regarding `CN(C(=O)OCc1c(-c2ccc(C34CCC(CC(=O)O)(CC3)OC4)c(F)c2)cnn1C)C1CCCC1` [Example 42, 2-(4-(4-(5-(((cyclopentyl(methyl)carbamoyl)oxy)methyl)-1-methyl-1H-pyrazol-4-yl)-2-fluorophenyl)-2-oxabicyclo[2.2.2]octan-1-yl)acetic acid], the 50% inhibitory concentration (IC50) was determined as 232 nM.

With `CN(Cc1ccccc1)C(=O)OCc1c(-c2ccc(C34CCC(CC(=O)O)(CC3)OC4)cc2)cnn1C` [Example 40, 2-(4-(4-(5-(((benzyl(methyl)carbamoyl)oxy)methyl)-1-methyl-1H-pyrazol-4-yl)phenyl)-2-oxabicyclo[2.2.2]octan-1-yl)acetic acid], the concentration for half-maximal inhibition (IC50) was determined as 767 nM.

`C[C@@H](OC(=O)Nc1c(-c2ccc(C34CCC(CCC(=O)O)(CC3)OC4)cc2)nnn1C)c1ccccc1Cl` [Example 8, 3-(4-(4-(5-((((R)-1-(2-chlorophenyl)ethoxy)carbonyl)amino)-1-methyl-1H-1,2,3-triazol-4-yl)phenyl)-2-oxabicyclo[2.2.2]octan-1-yl)propanoic acid]: the IC50 came out at 418 nM.

As to `Cc1noc(-c2ccc(C34CCC(CC(=O)O)(CC3)OC4)c(F)c2)c1NC(=O)OC(C)c1cccc(Cl)c1` (racemic) [Example 19, (±)-2-(4-(4-(4-(((1-(3-chlorophenyl)ethoxy)carbonyl)amino)-3-methyl-isoxazol-5-yl)-2-fluorophenyl)-2-oxabicyclo[2.2.2]octan-1-yl)acetic acid], the IC50 is 692 nM.

With `CC(C)CCN(C)C(=O)OCc1c(-c2ccc(C34CCC(CC(=O)O)(CC3)OC4)c(F)c2)cnn1C` [Example 43, 2-(4-(2-fluoro-4-(5-(((isopentyl(methyl)carbamoyl)oxy)methyl)-1-methyl-1H-pyrazol-4-yl)phenyl)-2-oxabicyclo[2.2.2]octan-1-yl)acetic acid], the 50% inhibitory concentration (IC50) was found to be 271 nM.

On to “2-(4-(4-(4-((((cyclobutylmethyl)(methyl)carbamoyl)oxy)methyl)-3-methylisoxazol-5-yl)phenyl)-2-oxabicyclo[2.2.2]octan-1-yl)acetic acid [Example 34]”, for which the 50% inhibitory concentration (IC50) was found to be 158 nM.

On to `C[C@@H](OC(=O)Nc1c(-c2ccc(C34CCC(CC(=O)O)(CC3)OC4)cc2)cnn1C)c1ccccc1Cl` [Example 28, 2-(4-(4-(5-((((R)-1-(2-chlorophenyl)ethoxy)carbonyl)amino)-1-methyl-1H-pyrazol-4-yl)phenyl)-2-oxa-bicyclo[2.2.2]octan-1-yl)acetic acid], for which the IC50 is 164 nM.

Take `Cc1noc(-c2ccc(C34CCC(CC(=O)O)(CC3)OC4)cc2F)c1NC(=O)OC(C)c1ccc(Cl)cc1` (racemic) [Example 24, (±)-2-(4-(4-(4-(((1-(4-chlorophenyl)ethoxy)carbonyl)amino)-3-methyl-isoxazol-5-yl)-3-fluorophenyl)-2-oxabicyclo[2.2.2]octan-1-yl)acetic acid]: the IC50 was found to be 406 nM.

With `Cc1noc(-c2ccc(C34CCC(CC(=O)O)(CC3)CO4)cc2)c1NC(=O)O[C@H](C)c1ccccc1Cl` [Example 48, 2-(1-(4-(4-((((R)-1-(2-chlorophenyl)ethoxy)carbonyl)amino)-3-methyl-isoxazol-5-yl)phenyl)-2-oxabicyclo[2.2.2]octan-4-yl)acetic acid], the IC50 turned out to be 354 nM.

`Cc1cc(C23CCC(CC(=O)O)(CC2)OC3)ccc1-c1onc(C)c1NC(=O)O[C@H](C)c1ccccc1Cl` [Example 27, 2-(4-(4-(4-((((R)-1-(2-chlorophenyl)ethoxy)carbonyl)amino)-3-methyl-isoxazol-5-yl)-3-methylphenyl)-2-oxabicyclo[2.2.2]octan-1-yl)acetic acid]: the IC50 came to 185 nM.

For `Cc1noc(-c2ccc(C34CCC(CC(=O)O)(CC3)CO4)cc2)c1COC(=O)N(C)C1CCCC1` [Example 53, 2-(1-(4-(4-(((cyclopentyl(methyl)carbamoyl)oxy)methyl)-3-methylisoxazol-5-yl)phenyl)-2-oxabicyclo[2.2.2]octan-4-yl)acetic acid], the IC50 amounted to 2550 nM.

`CN(C(=O)OCc1c(-c2ccc(C34CCC(CC(=O)O)(CC3)OC4)cc2F)cnn1C)C1CCCC1` [Example 44, 2-(4-(4-(5-(((cyclopentyl(methyl)carbamoyl)oxy)methyl)-1-methyl-1H-pyrazol-4-yl)-3-fluorophenyl)-2-oxabicyclo[2.2.2]octan-1-yl)acetic acid]: the IC50 is 1860 nM.

Turning to `Cc1noc(-c2ccc(C34CCC(CC(=O)O)(CC3)OC4)c(F)c2)c1NC(=O)O[C@H](C)C1CC1` [Example 16, 2-(4-(4-(4-((((R)-1-cyclopropylethoxy)carbonyl)amino)-3-methylisoxazol-5-yl)-2-fluorophenyl)-2-oxabicyclo[2.2.2]octan-1-yl)acetic acid], the IC50 turned out to be 407 nM.

In the case of `Cc1noc(-c2ccc(C34CCC(CC(=O)O)(CC3)OC4)cc2F)c1NC(=O)O[C@H](C)c1ccccc1Cl` [Example 22, 2-(4-(4-(4-((((R)-1-(2-chlorophenyl)ethoxy)carbonyl)amino)-3-methylisoxazol-5-yl)-3-fluorophenyl)-2-oxabicyclo[2.2.2]octan-1-yl)acetic acid], the IC50 is 64 nM.

Take `Cc1ccccc1[C@@H](C)OC(=O)Nc1c(C)noc1-c1ccc(C23CCC(CC(=O)O)(CC2)OC3)cc1` [Example 13, 2-(4-(4-(3-methyl-4-((((R)-1-(o-tolyl)ethoxy)carbonyl)amino)isoxazol-5-yl)phenyl)-2-oxabicyclo[2.2.2]octan-1-yl)acetic acid]: the IC50 turned out to be 184 nM.

As to `Cc1noc(-c2ccc(C34CCC(CC(=O)O)(CC3)OC4)cc2F)c1NC(=O)O[C@H](C)C1CC1` [Example 20, 2-(4-(4-(4-((((R)-1-cyclopropylethoxy)carbonyl)amino)-3-methylisoxazol-5-yl)-3-fluorophenyl)-2-oxabicyclo[2.2.2]octan-1-yl)acetic acid], the IC50 turned out to be 863 nM.

As for `C[C@@H](OC(=O)Nc1c(-c2ccc(C34CCC(CC(=O)O)(CC3)OC4)cc2F)cnn1C)c1ccccc1Cl` [Example 32, 2-(4-(4-(5-((((R)-1-(2-chlorophenyl)ethoxy)carbonyl)amino)-1-methyl-1H-pyrazol-4-yl)-3-fluorophenyl)-2-oxabicyclo[2.2.2]octan-1-yl)acetic acid], the half-inhibitory concentration (IC50) is 115 nM.

In the case of `Cc1noc(-c2ccc(C34CCC(CC(=O)O)(CC3)CO4)cc2)c1NC(=O)O[C@H](C)c1ccccc1F` [Example 52, 2-(1-(4-(4-((((R)-1-(2-fluorophenyl)ethoxy)carbonyl)amino)-3-methyl-isoxazol-5-yl)phenyl)-2-oxabicyclo[2.2.2]octan-4-yl)acetic acid], the IC50 came out at 134 nM.

Take `C[C@@H](OC(=O)Nc1c(-c2ccc(C34CCC(CCC(=O)O)(CC3)OC4)cc2)nnn1C)c1ccccc1` [Example 7, 3-(4-(4-(1-methyl-5-((((R)-1-phenylethoxy)carbonyl)amino)-1H-1,2,3-triazol-4-yl)phenyl)-2-oxabicyclo[2.2.2]octan-1-yl)propanoic acid]: the IC50 was found to be 264 nM.

For `CC(C)CCN(C)C(=O)OCc1c(-c2ccc(C34CCC(CC(=O)O)(CC3)OC4)cc2)cnn1C` [Example 39, 2-(4-(4-(5-(((isopentyl(methyl)carbamoyl)oxy)methyl)-1-methyl-1H-pyrazol-4-yl)phenyl)-2-oxabicyclo[2.2.2]octan-1-yl)acetic acid], the half-inhibitory concentration (IC50) stood at 520 nM.

Take `Cc1noc(-c2ccc(C34CCC(CCC(=O)O)(CC3)CO4)cc2)c1NC(=O)O[C@H](C)c1ccccc1` [Example 58, 3-(1-(4-(3-methyl-4-((((R)-1-phenylethoxy)carbonyl)amino)isoxazol-5-yl)phenyl)-2-oxabicyclo[2.2.2]octan-4-yl)propanoic acid]: the IC50 is 157 nM.

In the case of `Cc1noc(-c2ccc(C34CCC(CC(=O)O)(CC3)OC4)cc2)c1NC(=O)OC(C)c1ccc(Cl)cc1` (racemic) [Example 14], the half-inhibitory concentration (IC50) turned out to be 117 nM.

As to `Cc1noc(-c2ccc(C34CCC(CC(=O)O)(CC3)CO4)cc2)c1NC(=O)O[C@H](C)C1CC1` [Example 47, 2-(1-(4-(4-((((R)-1-cyclopropylethoxy)carbonyl)amino)-3-methylisoxazol-5-yl)phenyl)-2-oxabicyclo[2.2.2]octan-4-yl)acetic acid], the half-maximal inhibitory concentration (IC50) worked out at 583 nM.
